In one data set the test system is HEK 293/GLP-1R+Luc cells. As to the kind of experiment: Cytotoxicity noted in the reporter gene test. The data set is classed as cell-based, human. As to conditions: 6 h. From the text:
GLP-1R is a G-protein coupling receptor. When GLP-1R binds to an agonist, the Ga subunit of G protein is activated to stimulate adenylate cyclase, which leads to the increase in the concentration of intracellular cAMP. Since the promoter region of proinsulin gene has a cAMP response element, cAMP promotes, after binding to this response element, the transcription of the proinsulin gene, thereby stimulating the expression and secretion of insulin (Diabetes, 2000, Vol. 49: 1156-1164). The experimental method employs a human embryonal nephric cell strain (HEK 293) which is stably transfected with the expression vector of GLP-1R gene and the expression vector of luciferase reporter gene under the regulation of cAMP response element, to detect its response to the candidate compound (Cell Biology, 1992, Vol. 89: 8641-8645; Proc. Natl. Acad. Sci. U.S.A. 1987, Vol. 84: 3434-3438). […]
HEK 293/GLP-1R+Luc cells were inoculated, in a quantity of 20,000/100 μl/well, into a 96-well culture plate, and cultured at 37° C. overnight with a DMEM culture medium containing 10% fetal bovine serum and 500 μg/ml G418. […] Thereafter, the activity of luciferase was detected according to the specification in the kit of Steady-Glo™ luciferase analytic system, and the reading was performed by using a Victor^2 plate-reading machine.
For orientation: In a reporter assay the amount or activity of a reporter protein is the signal.

Data set [1] deals with T1, GLP-1R (Rattus norvegicus, UniProt P32301).
T1 construct: expressed in transfected cells; host or cells: HEK 293 (human embryonic kidney), stably transfected; self-made by National New Drugs Screening Center
T1 sequence (P32301 22-463): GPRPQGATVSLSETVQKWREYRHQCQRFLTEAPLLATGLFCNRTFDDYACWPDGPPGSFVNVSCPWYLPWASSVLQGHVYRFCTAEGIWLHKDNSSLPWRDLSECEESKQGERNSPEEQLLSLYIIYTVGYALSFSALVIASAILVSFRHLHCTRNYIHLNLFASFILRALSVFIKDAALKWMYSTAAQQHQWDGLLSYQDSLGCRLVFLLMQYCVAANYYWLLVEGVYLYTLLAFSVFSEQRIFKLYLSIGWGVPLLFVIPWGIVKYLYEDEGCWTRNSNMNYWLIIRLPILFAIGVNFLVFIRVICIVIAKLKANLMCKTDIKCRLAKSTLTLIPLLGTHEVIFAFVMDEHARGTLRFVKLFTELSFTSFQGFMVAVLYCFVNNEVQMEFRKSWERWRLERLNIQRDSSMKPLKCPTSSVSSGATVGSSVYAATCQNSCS
As to the kind of experiment: Testing the expression of reporter gene (luciferase under cAMP response element) in HEK 293/GLP-1R+Luc cells. As to conditions: 6 h. The data set is classed as cell-based. An excerpt: 1. Testing the Expression of Reporter Gene
GLP-1R is a G-protein coupling receptor. When GLP-1R binds to an agonist, the Ga subunit of G protein is activated to stimulate adenylate cyclase, which leads to the increase in the concentration of intracellular cAMP. Since the promoter region of proinsulin gene has a cAMP response element, cAMP promotes, after binding to this response element, the transcription of the proinsulin gene, thereby stimulating the expression and secretion of insulin (Diabetes, 2000, Vol. 49: 1156-1164). The experimental method employs a human embryonal nephric cell strain (HEK 293) which is stably transfected with the expression vector of GLP-1R gene and the expression vector of luciferase reporter gene under the regulation of cAMP response element, to detect its response to the candidate compound (Cell Biology, 1992, Vol. 89: 8641-8645; Proc. Natl. Acad. Sci. U.S.A. 1987, Vol. 84: 3434-3438). When screening the candidate compounds, the compounds that may induce the expression of luciferase reporter gene are regarded as having the activity of activating GLP-1R.
(§1) Cell strain: HEK 293/GLP-1R+Luc cell strain, in which GLP-1R and luciferase are stably expressed (self-made by National New Drugs Screening Center);
HEK 293/GLP-1R+Luc cells were inoculated, in a quantity of 20,000/100 μl/well, into a 96-well culture plate, and cultured at 37° C. overnight with a DMEM culture medium containing 10% fetal bovine serum and 500 μg/ml G418. […] The culture was performed under the conditions of 37° C., 5% CO2 for 6 h. Thereafter, the activity of luciferase was detected according to the specification in the kit of Steady-Glo™ luciferase analytic system, and the reading was performed by using a Victor^2 plate-reading machine.

Data set [2] concerns the target T1, GLP-1R. In words: Antagonistic experiment with Exendin9-39 on S4P-induced reporter gene expression in HEK 293/GLP-1R+Luc cells. The data set is classed as cell-based.
Text: 3. Antagonistic Experiment with Exendin9-39
In order to corroborate that the active compounds had receptor specificity with respect to their activating effects on reporter gene and intracellular cAMP, Exendin9-39 (Eur. J. Pharmacol, 1994, 269: 183-191; Metabolism 2004, 53:252-259.), a specific antagonist of GLP-1R, was used to validate whether it could antagonize the agonistic activity of the above representative compounds to GLP-1R.
as §1
HEK 293/GLP-1R+Luc cells were inoculated, in a quantity of 20,000/100 μl/well, into a 96-well culture plate, and cultured at 37° C. overnight with a DMEM culture medium containing 10% fetal bovine serum and 500 μg/ml G418. Exendin9-39 was diluted to a certain concentration gradient, which was then added, in a quantity of 1 μl/well, into the above 96-well culture plate. The culture was performed under the conditions of 37° C., 5% CO2 for 6 h. Thereafter, the activity of luciferase was detected according to the specification in the kit of Steady-Glo™ luciferase analytic system, and the reading was performed by using a Victor^2 plate-reading machine.

Data set [3] concerns the target T1, GLP-1R. As to the kind of experiment: Determination of the concentration of intracellular cAMP (CatchPoint Cyclic AMP kit) in HEK 293/GLP-1R+Luc cells. As to conditions: 10 min. The data set is classed as cell-based. From the text: 2. Determination of the Concentration of Intracellular cAMP
Since the concentration of intracellular cAMP can only be indirectly evaluated according to the above method for detecting the activation of reporter gene, it is necessary to determine the influence of active compounds on the concentration of intracellular cAMP by using a cAMP-determining kit, i.e., a functional re-screening.
cAMP-determining kit (Molecular Devices Co., CatchPoint® Cyclic AMP kit);
HEK 293/GLP-1R+Luc cell strain, in which GLP-1R and luciferase are stably expressed (self-made by National New Drugs Screening Center);
HEK 293/GLP-1R+Luc cells were inoculated, in a quantity of 20,000/100 μl/well, into a 96-well culture plate, and cultured at 37° C. overnight. The candidate compounds S4P, S3-20-32, S3-11-14, S6-14 and S8 were respectively diluted to a certain concentration gradient, which were then added, in a quantity of […], into the above 96-well culture plate. The culture was performed under the conditions of 37° C., 5% CO2 for 10 min. Thereafter, the concentration of intracellular cAMP was determined according to the specification in CatchPoint® Cyclic AMP kit.
The lower the reading was, the higher the concentration of intracellular cAMP was.

[4] abbreviates: final concentration 0.00001 mg/ml.
The mark [5] stands for this setting: final concentration 0.00003 mg/ml.
Where [6] appears, read: final concentration 0.0001 mg/ml.
The mark [7] stands for this setting: final concentration 0.0003 mg/ml.
The mark [8] stands for this setting: final concentration 0.001 mg/ml.
The mark [9] stands for this setting: final concentration 0.003 mg/ml.

As to `COc1cc(C2C(NC(=O)c3ccc(NC(=O)C4CCCC4)cc3)(C(=O)O)C(c3ccc(OC(=O)c4cccs4)c(OC)c3)C2(NC(=O)c2ccc(NC(=O)C3CCCC3)cc2)C(=O)O)ccc1OC(=O)c1cccs1` (centres unmarked) [Compound S4P], the “cytotoxicity in the reporter gene test” value in the data set on HEK 293/GLP-1R+Luc cells (final concentration 0.03 mg/ml) and in the data set on HEK 293/GLP-1R+Luc cells (final concentration 0.1 mg/ml) was “cytotoxic” throughout. For the same compound, the “expression of the reporter gene (% reaction, taking the reaction of 30 nM GLP-1 as 100%)” value at GLP-1R [1] (final concentration 0.000003 mg/ml) was found to be 5.157%; at GLP-1R [1] (setting [4]) it was 5.151%; at GLP-1R [1] (setting [5]), 5.276%; at GLP-1R [1] (setting [6]), 5.697%; at GLP-1R [1] (setting [7]) it was 10.19%; on GLP-1R [1] (setting [8]), 22.23%. The “expression of the reporter gene (% reaction, taking the reaction of 30 nM GLP-1 as 100%)” value at GLP-1R [1] (setting [9]) was 35.55%; on GLP-1R [1] (final concentration 0.01 mg/ml), 41.19%. The “antagonistic effect of Exendin9-39 on S4P (% reaction, taking the reaction of 3 μM S4P as 100%)” value on GLP-1R [2] (Exendin9-39 final concentration 0.03 nM) is recorded as 101.8115%; on GLP-1R [2] (Exendin9-39 final concentration 0.1 nM) it was 96.64%; on GLP-1R [2] (Exendin9-39 final concentration 0.3 nM), 83.84%; at GLP-1R [2] (Exendin9-39 final concentration 1 nM) it was 90.78%; on GLP-1R [2] (Exendin9-39 final concentration 3 nM), 72.84%; on GLP-1R [2] (Exendin9-39 final concentration 10 nM), 52.48%. The “antagonistic effect of Exendin9-39 on S4P (% reaction, taking the reaction of 3 μM S4P as 100%)” value at GLP-1R [2] (Exendin9-39 final concentration 30 nM) was 32.33%; at GLP-1R [2] (Exendin9-39 final concentration 100 nM), 18.77%; at GLP-1R [2] (Exendin9-39 final concentration 300 nM), 15.97%; on GLP-1R [2] (Exendin9-39 final concentration 1000 nM), 27.97%; on GLP-1R [2] (Exendin9-39 final concentration 3000 nM), 14.57%; at GLP-1R [2] (Exendin9-39 final concentration 10000 nM) it was 15.22%. Moreover, the “receptor specificity of the biological activity” value on GLP-1R [2] (antagonised by Exendin9-39) is “mediated by GLP-1R”. For the same compound, the “concentration of the intracellular cAMP (relative fluoresence intensity; lower reading = higher cAMP)” value is on record as 3536.618 RFU on GLP-1R [3] (setting [4]); 2924.461 RFU on GLP-1R [3] (setting [5]); 2985.794 RFU at GLP-1R [3] (setting [6]); 2708.597 RFU at GLP-1R [3] (setting [7]); 1910.855 RFU on GLP-1R [3] (setting [8]); 2072.988 RFU at GLP-1R [3] (setting [9]). The “concentration of the intracellular cAMP (relative fluoresence intensity; lower reading = higher cAMP)” value on GLP-1R [3] (final concentration 0.01 mg/ml) stood at 2310.616 RFU; at GLP-1R [3] (final concentration 0.03 mg/ml) it was 2480.017 RFU.
On to Exendin9-39 [reference compound], for which the “effect on the expression of reporter gene induced by S4P” value on GLP-1R [2] (Table 3, FIG. 6) is listed as “inhibit, in a dose-dependent manner”.
